molecular target: CDK2/Cyclin E1 (Homo sapiens (Human), UniProt P24941); assay: CDK2/Cyclin E1 HTRF enzyme activity assay (Example A); type: biochemical; conditions: 1 mM ATP
Method: Assays were conducted in white 384-well polystyrene plates in a final reaction volume of 8 μL. […] HTRF signals were read after 1 hour at room temperature on a PHERAstar FS plate reader (BMG Labtech). Data was analyzed with IDBS XLFit and GraphPad Prism 5.0 software using a three or four parameter dose response curve to determine IC50 for each compound.

IC50, ≤ 50 nM:
CS(=O)(=O)N1CCC(Nc2ncc(C(F)(F)F)c(-c3cn(-c4ccc(N5CC[C@@H](O)C5)cc4Cl)cn3)n2)CC1 [Example 138, (R)-1-(3-Chloro-4-(4-(2-((1-(methylsulfonyl)piperidin-4-yl)amino)-5-(trifluoromethyl)pyrimidin-4-yl)-1H-imidazol-1-yl)phenyl)pyrrolidin-3-ol]
Cc1nc(C(=O)NC(C)C)ccc1-n1cnc(-c2nc(NC3CCN(S(C)(=O)=O)CC3)ncc2C(F)(F)F)c1 [Example 133, N-Isopropyl-6-methyl-5-(4-(2-((1-(methyl-sulfonyl)piperidin-4-yl)amino)-5-(trifluoromethyl)-pyrimidin-4-yl)-1H-imidazol-1-yl)picolinamide]
CS(=O)(=O)N1CCC(Nc2ncc(C(F)(F)F)c(-c3cn(-c4ccc(C#N)cc4CO)cn3)n2)CC1 [Example 235, 3-(Hydroxymethyl)-4-(4-(2-((1-(methylsulfonyl)piperidin-4-yl)amino)-5-(trifluoromethyl)pyrimidin-4-yl)-1H-imidazol-1-yl)benzonitrile]
CS(=O)(=O)N1CC[C@H](Nc2ncc(C(F)(F)F)c(-c3cn(-c4ccccc4C#N)cn3)n2)[C@H](F)C1 [Example 472, 2-(4-(2-(((3R,4S)-3-Fluoro-1-(methylsulfonyl)piperidin-4-yl)amino)-5-(trifluoromethyl)pyrimidin-4-yl)-1H-imidazol-1-yl)benzonitrile]
Cn1cncc1-c1ccc(-n2cnc(-c3nc(NC4CCN(S(C)(=O)=O)CC4)ncc3C(F)(F)F)c2)c(Cl)c1 [Example 124, 4-(1-(2-Chloro-4-(1-methyl-1H-imidazol-5-yl)phenyl)-1H-imidazol-4-yl)-N-(1-(methylsulfonyl)-piperidin-4-yl)-5-(trifluoromethyl)-pyrimidin-2-amine]
CCNCc1cccc(-n2cnc(-c3nc(NC4CCN(S(C)(=O)=O)CC4)ncc3C(F)(F)F)c2)c1Cl [Example 361, 4-(1-(2-Chloro-3-((ethylamino)methyl)phe-nyl)-1H-imidazol-4-yl)-N-(1-(methylsulfonyl)piperidin-4-yl)-5-(trifluoromethyl)pyrimi-din-2-amine]
CNCc1ccc(-n2cnc(-c3nc(NC4CCN(S(C)(=O)=O)CC4)ncc3C(F)(F)F)c2)c(Cl)c1F [Example 268, 4-(1-(2-Chloro-3-fluoro-4-((methylamino)methyl)phenyl)-1H-imidazol-4-yl)-N-(1-(methylsulfonyl)piperidin-4-yl)-5-(trifluoromethyl)pyrimidin-2-amine]
COc1nccc(-n2cnc(-c3nc(N[C@H]4CCN(S(C)(=O)=O)C[C@H]4F)ncc3C(F)(F)F)c2)c1Cl [Example 300, 4-(1-(3-Chloro-2-methoxypyridin-4-yl)-1H-imidazol-4-yl)-N-((3R,4S)-3-fluoro-1-(methylsulfonyl)piperidin-4-yl)-5-(trifluoromethyl)pyrimidin-2-amine]
CCNCc1ccc(-n2cc(-c3nc(N[C@H]4CCN(S(C)(=O)=O)C[C@H]4F)ncc3C(F)(F)F)nc2C)c(F)c1 [Example 389, 4-(1-(4-((Ethylamino)methyl)-2-fluorophenyl)-2-methyl-1H-imidazol-4-yl)-N-((3R,4S)-3-fluoro-1-(methylsulfonyl)piperidin-4-yl)-5-(trifluoromethyl)pyrimidin-2-amine]
CS(=O)(=O)N1CCC(Nc2ncc(C(F)(F)F)c(-c3cn(-c4ccc(CN5CC(C#N)C5)cc4Cl)cn3)n2)CC1 [Example 198, 1-(3-Chloro-4-(4-(2-((1-(methylsulfonyl)-piperidin-4-yl)amino)-5-(trifluoromethyl)-pyrimidin-4-yl)-1H-imidazol-1-yl)benzyl)-azetidine-3-carbonitrile]
CC(C)NCc1cc(F)c(-n2cnc(-c3nc(NC4CCN(S(C)(=O)=O)CC4)ncc3C(F)(F)F)c2)c(Cl)c1 [Example 394, 4-(1-(2-Chloro-6-fluoro-4-((isopropylamino)methyl)phenyl)-1H-imidazol-4-yl)-N-(1-(methylsulfonyl)piperidin-4-yl)-5-(trifluoromethyl)pyrimidin-2-amine]
C[C@@]1(O)CCN(CCc2cccc(-n3cnc(-c4nc(NC5CCN(S(C)(=O)=O)CC5)ncc4C(F)(F)F)c3)c2Cl)C1 [Example 374, (R)-1-(2-Chloro-3-(4-(2-((1-(methylsulfonyl)piperidin-4-yl)amino)-5-(trifluoromethyl)pyrimi-din-4-yl)-1H-imidazol-1-yl)phenethyl)-3-methylpyrrolidin-3-ol]
Cc1ccc(-n2cnc(-c3nc(N[C@H]4CCN(S(=O)(=O)c5cn(C)cn5)C[C@H]4C)ncc3C(F)(F)F)c2)c(C#N)n1 [Example 152, 6-Methyl-3-(4-(2-(((3R,4S)-3-methyl-1-((1-methyl-1H-imidazol-4-yl)sulfonyl)piperidin-4-yl)amino)-5-(trifluoromethyl)pyrimidin-4-yl)-1H-imidazol-1-yl)picolinonitrile]
Cn1cnc(S(=O)(=O)N2CCC(Nc3ncc(C(F)(F)F)c(-c4cn(-c5cc(N)ncc5F)cn4)n3)CC2)c1 [Example 6, 4-(1-(2-Amino-5-fluoropyridin-4-yl)-1H-imidazol-4-yl)-N-(1-((1-methyl-1H-imidazol-4-yl)sulfonyl)piperidin-4-yl)-5-(trifluoromethyl)pyrimidin-2-amine]
CS(=O)(=O)N1CCC(Nc2ncc(C(F)(F)F)c(-c3cn(-c4cccc(C#N)c4C(F)(F)F)cn3)n2)CC1 [Example 38, 3-(4-(2-((1-(Methylsulfonyl)piperidin-4-yl)amino)-5-(trifluoromethyl)pyrimidin-4-yl)-1H-imidazol-1-yl)-2-(trifluoromethyl)benzonitrile]
CCN1CCN(Cc2cc(F)c(-n3cnc(-c4nc(NC5CCN(S(C)(=O)=O)CC5)ncc4C(F)(F)F)c3)c(Cl)c2)CC1 [Example 396, 4-(1-(2-Chloro-4-((4-ethylpiperazin-1-yl)methyll)-6-fluorophenyl)-1H-imidazol-4-yl)-N-(1-(methylsulfonyl)piperidin-4-yl)-5-(trifluoromethyl)pyrimidin-2-amine]
CC(C)NCc1cc(F)c(-n2cnc(-c3nc(NC4CCN(S(C)(=O)=O)CC4)ncc3C(F)(F)F)c2)c(F)c1 [Example 348]
COc1nccc(-n2cnc(-c3nc(NC4CCN(S(C)(=O)=O)CC4)ncc3C(F)(F)F)c2)c1C#N [Example 291, 2-Methoxy-4-(4-(2-((1-(methylsulfonyl)piperidin-4-yl)amino)-5-(trifluoromethyl)pyrimidin-4-yl)-1H-imidazol-1-yl)nicotinonitrile]
CN(C)Cc1ccc(-n2cnc(-c3nc(N[C@H]4CCN(S(C)(=O)=O)C[C@H]4F)ncc3C(F)(F)F)c2)c(Cl)c1 [Example 183, 4-(1-(2-Chloro-4-((dimethylamino)methyl)phenyl)-1H-imidazol-4-yl)-N-((3R,4S)-3-fluoro-1-(methylsulfonyl)piperidin-4-yl)-5-(trifluoromethyl)pyrimidin-2-amine]
